Data as given in patent publication US4415566A, “Cephalosporin derivatives” (Boehringer Ingelheim GmbH, priority 1979, dated 1983).
Converted amounts (≈) assume the structure as drawn. Like-named read-outs stand apart in the source and are kept apart here.

Tests used:
[1] = test system: Klebsiella pneumoniae 272; assay: Serial dilution test in the microtiter system (MIC), Klebs. pneum. 272; format: cell-based
Procedure: (§1) These tests were performed according to the method of the serial dilution test in the microtiter system. The effect of the substances on bacteriostasis was examined in a fluid medium. […] A nutrient medium of the following composition was used. 10 gm of peptone, 8 gm of meat extract-oxoid, 3 gm of sodium chloride, 2 gm of sec. sodium phosphate were diluted with distilled water to […] (pH 7.2-7.4). Only in the test against streptococci 1% of glucose was added. The age of the primary cultures was about 20 hours. The standardization of the pathogen suspension was effected by using a photometer according to "Eppendorf" (test tube dismeter 14 mm, filter 546 nm) with the aid of the turbidity of a comparison suspension consisting of barium sulfate, this suspension being prepared by addition of 3.0 ml of 1% barium chloride solution to 97 ml of 1% sulfuric acid. After the standardization, streptococcus aronson were further diluted to a concentration of 1:15 and the other microorganisms to a concentration of 1:1500 by means of a sodium chloride solution.
(§2) 16 mg of the test substance were put into a 10 ml-measuring flask and filled up to the mark with the solvent. The further dilution series was standardized with distilled water or the respective solvent.
(§3) The cavities of the microtiter plates were filled with 0.2 ml of nutrient medium. Then, 0.01 ml of the corresponding test substance dilution was added and inoculated with 0.01 ml of the standardized suspension. The bacteria were incubated at 37° C. for 18-20 hours. Control tests merely using the solvent were carried out simultaneously.
(§4) The measurement was carried out macroscopically to determine the minimal inhibitory (threshold) concentration, i.e. the lower still bacteriostatically effective concentration.
(§5) Staphylococcus aureus SG 511, Escherichia coli ATCC 11 775, Pseudomonas aeruginosa Hamburgensis and Pseudomonas aeruginosa Walter, Serratia marcescens ATCC 13880, Klebsiella pneumoniae ATCC 10 031 and 272, Proteus mirabilis Hamburgensis, Proteus rettgeri, Enterbacter cloaceae ATCC 13 047 and E. Coli R+TEM (β-lactamase carrier).

[2] = test system: Pseudomonas aeruginosa Hamburgensis; assay: Serial dilution test in the microtiter system (MIC), Pseud. aerug. Hbg.; format: cell-based
Procedure: as §1, §2, §3, §4, §5

[3] = test system: Pseudomonas aeruginosa Walter; assay: Serial dilution test in the microtiter system (MIC), Pseud. aerug. Walter; format: cell-based
Procedure: as §1, §2, §3, §4, §5

[4] = test system: E. coli ATCC 11775; assay: In vivo activity in mice, E. coli infection; design: species or system Female NMRI mice; settings: Escherichia coli, ATCC11775, iPSC, sc, 168 h; E. coli infection i.p.; s.c. administration; per dose; observation 7 days; read-out: ED50 (dose at which 50% of the animals survived)
Procedure: (§6) A number of compounds of this invention were tested in vivo in mice against experimental infections. Bacteria E. coli ATCC 11775 and Psuedomonas aeruginosa Walter were used as pathogens. An intraperitoneal infection with 0.2 ml of a 5% suspension of the bacteria was induced. This corresponds to about 2×10^6 E. Coli germs and 8×10^5 pseudomonas germs/mouse. […] The groups with E. coli infection were treated with the test compound three times on the first day (1, 4, and 7 hours post infectionem) and for two days thereafter twice a day. The groups with the pseudomonas infection were treated with the test compound 6 times on the first day (1, 3, 6, 9, 12 and 15 hours post infectionem) and for two days thereafter twice a day. The observation time was in both cases 7 days. The results of these tests with representatives of the penicillins and cephalosporins according to the invention are shown in the following table: […]

[5] = test system: Proteus mirabilis Hamburgensis; assay: Serial dilution test in the microtiter system (MIC), Prot. mirabilis; format: cell-based
Procedure: as §1, §2, §3, §4, §5

[6] = test system: Serratia marcescens ATCC 13880; assay: Serial dilution test in the microtiter system (MIC), Serrat. marcesc. ATCC 13880; format: cell-based
Procedure: as §1, §2, §3, §4, §5

[7] = test system: Proteus rettgeri; assay: Serial dilution test in the microtiter system (MIC), Prot. rettgeri; format: cell-based; settings: Providencia rettgeri
Procedure: as §1, §2, §3, §4, §5

[8] = test system: Klebsiella pneumoniae ATCC 10 031; assay: Serial dilution test in the microtiter system (MIC), Klebs. pneum. ATCC 10031; format: cell-based
Procedure: as §1, §2, §3, §4, §5

[9] = test system: Escherichia coli ATCC 11 775; assay: Serial dilution test in the microtiter system (MIC), E. Coli ATCC 11775; format: cell-based
Procedure: as §1, §2, §3, §4, §5

[10] = test system: Psuedomonas aeruginosa Walter; assay: In vivo activity in mice, Pseudomonas infection; design: species or system Female NMRI mice; settings: Mus musculus, iPSC, sc, 168 h; Pseudomonas infection i.p.; s.c. administration; per dose; observation 7 days; read-out: ED50 (dose at which 50% of the animals survived)
Procedure: as §6

[11] = test system: E. Coli ATCC 9637; assay: Serial dilution test in the microtiter system (MIC), E. Coli ATCC 9637; format: cell-based; settings: Escherichia coli, ATCC9637
[12] = test system: Enterbacter cloaceae ATCC 13 047; assay: Serial dilution test in the microtiter system (MIC), Eb. cloaceae ATCC 13047; format: cell-based
Procedure: as §1, §2, §3, §4, §5

[13] = Table III, Pseud. aerug. Walter, 37° C., 18-20 hours, read-out: MIC
[14] = Table III, Prot. mirabilis, 37° C., 18-20 hours, read-out: MIC
[15] = Table III, E. Coli ATCC 11775, 37° C., 18-20 hours, read-out: MIC
[16] = ATCC13880, Table III, Serrat. marcesc. ATCC 13880, 37° C., 18-20 hours, read-out: MIC
[17] = Table III, Prot. rettgeri, 37° C., 18-20 hours, read-out: MIC
[18] = Table III, E. Coli ATCC 9637, 37° C., 18-20 hours, read-out: MIC
[19] = Table III, Pseud. aerug. Hbg., 37° C., 18-20 hours, read-out: MIC

Row | SMILES | MIC [1]; 272 [µg/mL] | ED50 [4] [mg/kg] | MIC [3, 13] [µg/mL] | MIC [5, 14] [µg/mL] | MIC [8] [µg/mL] | MIC [9, 15] [µg/mL] | ED50 [10] [mg/kg] | MIC [12] [µg/mL] | MIC [6, 16] [µg/mL] | MIC [7, 17] [µg/mL] | MIC [11, 18] [µg/mL] | MIC [2, 19] [µg/mL] | other results
1 | Cn1nnnc1SCC1=C(C(=O)O)N2C(=O)[C@@H](NC(=O)C(NC(=O)Nc3cnc(NCc4ccco4)nc3O)c3cccs3)[C@H]2SC1 (single isomer, unassigned) [M] | 0.5 (≈ 0.715 µM) | 0.8 | – | – | – | – | – | – | – | – | – | – | MIC [2]: 8 µg/mL (≈ 11.4 µM); MIC [3]: 4 µg/mL (≈ 5.72 µM); MIC ([5]; Table IV, Prot. mir. Hbg., 37° C., 18-20 hours, read-out: MIC): 0.12 µg/mL (≈ 0.171 µM); MIC ([6]; ATCC13880, Table IV, Serr. marcesc. ATCC 13880, 37° C., 18-20 hours, read-out: MIC): 0.5 µg/mL (≈ 0.715 µM); MIC ([7]; Table IV, Prot. rettg., 37° C., 18-20 hours, read-out: MIC): 0.5 µg/mL (≈ 0.715 µM)
2 | CC1(C)S[C@@H]2[C@H](NC(=O)[C@H](NC(=O)Nc3cnc(NCc4cccnc4)nc3O)c3ccc(O)cc3)C(=O)N2[C@H]1C(=O)O [A, D-α-{3-[4-Hydroxy-2-(3'-pyridylmethylamino)-5-pyrimidinyl]-ureido}-p-hydroxy-benzyl-penicillin sodium] | 8 | 0.7 | 1 | 0.12 | 8 | 0.5 | 1.2 | 4 | 0.5 | 1 | – | – | MIC [11]: 0.5 µg/mL
3 | CC1(C)S[C@@H]2[C@H](NC(=O)[C@H](NC(=O)N3CCNC3=O)c3ccccc3)C(=O)N2[C@H]1C(=O)O [Azlocillin, reference compound] | – | ~35 | – | – | – | – | ~110 | – | – | – | 16 (≈ 34.7 µM) | – | MIC ([1]; Table III, Klebs. pneum. 272, 37° C., 18-20 hours, read-out: MIC): 32 µg/mL (≈ 69.3 µM); MIC [2]: 8 µg/mL (≈ 17.3 µM); MIC [3]: 8 µg/mL (≈ 17.3 µM); MIC [5]: 2 µg/mL (≈ 4.33 µM); MIC ([8]; Table III, Klebs. pneum. ATCC 10031, 37° C., 18-20 hours, read-out: MIC): 32 µg/mL (≈ 69.3 µM); MIC [9]: 8 µg/mL (≈ 17.3 µM); MIC ([12]; Table III, Eb. cloaceae ATCC 13047, 37° C., 18-20 hours, read-out: MIC): 32 µg/mL (≈ 69.3 µM); MIC ([6]; ATCC13880): 4 µg/mL (≈ 8.67 µM); MIC [7]: 8 µg/mL (≈ 17.3 µM)
4 | CC1(C)S[C@@H]2[C@H](NC(=O)[C@H](NC(=O)Nc3cnc(Nc4ccc(C(N)=O)s4)nc3O)c3ccc(O)cc3)C(=O)N2[C@H]1C(=O)O [B, D-α-{3-[2-(5'-Aminocarbonyl-2'-thienylamino)-4-hydroxy-5-pyrimidinyl]-ureido}-p-hydroxy-benzyl-penicillin sodium] | 2 | 1.3 | 1 | 0.06 | 2 | – | 4.8 | 2 | 0.2 | 0.5 | 0.5 | 1 | MIC [9]: 0.25 µg/mL
5 | CC1(C)S[C@@H]2[C@H](NC(=O)[C@H](NC(=O)Nc3cnc(Nc4ccc(S(C)(=O)=O)nc4)nc3O)c3ccc(O)cc3)C(=O)N2[C@H]1C(=O)O [Compound E, D-α-{3-[4-Hydroxy-2-(6'-methylsulfonyl-3'-pyridylamino)-5-pyrimidinyl]-ureido}-p-hydroxy-benzyl-penicillin sodium] | 2 | – | 1 | 0.06 | 2 | 0.2 | – | 2 | 0.2 | 0.25 | 0.2 | 1 | –
6 | Cc1ncc(CNc2ncc(NC(=O)N[C@@H](C(=O)N[C@@H]3C(=O)N4[C@@H]3SC(C)(C)[C@@H]4C(=O)O)c3ccc(O)cc3)c(O)n2)cn1 [F, D-α-{3-[4-Hydroxy-2-(2'-methyl-5'-pyrimidinylmethylamino)-5-pyrimidinyl]-ureido}-p-hydroxy-benzyl-penicillin sodium] | 8 | – | 1 | 0.06 | 8 | 0.5 | – | 4 | 0.5 | 0.5 | – | – | MIC [11]: 0.5 µg/mL
7 | CC1(C)S[C@@H]2[C@H](NC(=O)[C@H](NC(=O)Nc3cnc(Nc4ccc(O)nc4)nc3O)c3ccc(O)cc3)C(=O)N2[C@H]1C(=O)O [G, D-α-{3-[4-Hydroxy-2-(6'-hydroxy-3'-pyridylamino)-5-pyrimidinyl]-ureido}-p-hydroxy-benzyl-penicillin sodium] | 4 | – | 0.5 | 0.01 | 4 | 0.2 | – | 4 | 0.1 | 0.5 | 0.2 | 0.5 | –
